Among the data in patent publication US8486948B2, “Piperazinodihydrothienopyrimidine derivatives” (Boehringer Ingelheim International GmbH, priority 2007, dated 2013) are inhibition values, retold here.

Each structure is given as a SMILES string. Where a name gives a salt, the structure may show the parent alone.

Sequence of PDE4B (Q07343 whole entry, species assumed): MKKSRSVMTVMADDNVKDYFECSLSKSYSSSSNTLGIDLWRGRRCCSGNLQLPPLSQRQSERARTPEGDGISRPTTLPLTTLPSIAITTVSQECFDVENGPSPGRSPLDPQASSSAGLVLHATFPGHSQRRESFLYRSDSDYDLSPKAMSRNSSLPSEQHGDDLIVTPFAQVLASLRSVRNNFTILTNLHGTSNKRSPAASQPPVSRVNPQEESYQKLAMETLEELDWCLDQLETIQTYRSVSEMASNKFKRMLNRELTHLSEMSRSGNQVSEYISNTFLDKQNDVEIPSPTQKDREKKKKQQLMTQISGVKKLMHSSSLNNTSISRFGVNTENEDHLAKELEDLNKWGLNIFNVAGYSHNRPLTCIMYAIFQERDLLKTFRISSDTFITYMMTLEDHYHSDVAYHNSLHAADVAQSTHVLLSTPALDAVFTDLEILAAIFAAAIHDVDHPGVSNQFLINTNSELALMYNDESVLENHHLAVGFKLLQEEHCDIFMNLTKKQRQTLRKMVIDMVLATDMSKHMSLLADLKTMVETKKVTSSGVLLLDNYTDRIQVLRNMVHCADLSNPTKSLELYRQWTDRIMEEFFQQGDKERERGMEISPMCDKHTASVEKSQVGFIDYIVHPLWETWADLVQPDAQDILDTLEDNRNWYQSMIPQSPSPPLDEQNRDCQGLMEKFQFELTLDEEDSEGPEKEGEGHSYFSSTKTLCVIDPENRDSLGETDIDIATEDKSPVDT

For the first experiment, the target named is PDE4B (Homo sapiens, UniProt Q07343). Put plainly: Scintillation Proximity (SPA) assay, inhibition of PDE4B at 1 μM. Format: biochemical. The following applies: Table A; test substance 1 μM; one hour incubation with [H3]-cAMP at 30° C. How it is done:
The inhibitions (in %) at 1 μM of the individual Example substances are included in the following Tables of Examples and were determined as follows:
The Scintilation Proximity (SPA) Assays (GE Healthcare, No. TRKQ7090) make use of the different affinities of cyclic 3″-5″-adenosine monophosphate (cAMP, low affinity) and linear 5′-adenosine monophosphate (AMP, high affinity) for yttrium silicate scintillator beads. The cAMP specific phosphodiesterase (PDE) PDE4B cleaves the 3′-phosphoester bond of the tritium-labelled [H3]-cAMP to form the [H3]-5′-AMP. Because of its higher affinity for the scintillator beads this [H3]-AMP accumulates on the beads and causes scintillation events (flashes of light) which are measured in a Wallac Microbeta Scintillation Counter.
The test starts with one hour's incubation of [H3]-cAMP with the PDE4B enzyme in assay buffer at 30° C., once with the Example substance that is to be tested (in a concentration of 1 μM) and once without the Example substance that is to be tested. After this incubation the reaction is stopped by the addition of the beads. The beads are given an opportunity to settle over the next 45 minutes, then they are measured in the Scintillation Counter. If the substance is capable of inhibiting the enzymatic activity of the PDE4B, less [H3]-AMP is formed during the incubation phase and fewer scintillation events can be measured.
For `O=C1CN(c2nc3c(c(NC4(CO)CC4)n2)[S+]([O-])CC3)CCN1c1cccc(Br)c1` (centres unmarked) [Example 13], the inhibition at 1 µM was 19%.
`C[C@H]1CN(c2ccc(Cl)cc2)CCN1c1nc2c(c(Nc3cccc(F)c3)n1)[S+]([O-])CC2` (some centres unmarked) [Example 10] yielded an inhibition at 1 µM of 94%.
Molecule `[O-][S+]1CCc2nc(N3C[C@H]4CC3CN4c3ccc(Br)cc3)nc(Nc3cccc(F)c3)c21` (some centres unmarked) [Example 21, {2-[5-(4-bromophenyl)-2,5-diazabicyclo[2,2,1]hept-2-yl]-5-oxo-6,7-dihydro-5H-5λ^4-thieno[3,2-d]pyrimidin-4-yl}-(3-fluorophenyl)-amine] yielded an inhibition at 1 µM of 95%.
The same measure, in the same setting: under `[O-][S+]1CCc2nc(N3C[C@H]4CC3CN4c3ccc(F)cc3)nc(NC3(CO)CC3)c21` (some centres unmarked) [Example 24, (1-{2-[5-(4-fluorophenyl)-2,5-diazabicyclo[2,2,1]hept-2-yl]-5-oxo-6,7-dihydro-5H-5λ^4-thieno[3,2-d]pyrimidin-4-ylamino}-cyclopropyl)-methanol] stands 93%.
The same measure, in the same setting: under `O=C1CN(c2nc3c(c(NC4CCOCC4)n2)[S+]([O-])CC3)CCN1c1ccccc1` (centres unmarked) [Example 18] stands 93%; under `[O-][S+]1CCc2nc(N3CC4CC3CN4c3ccc(Cl)cc3)nc(NC3CCOCC3)c21` (centres unmarked) [Example 6], 95%; under `C[C@H]1CN(c2ccc(Cl)cc2)CCN1c1nc2c(c(NC3CCOCC3)n1)[S+]([O-])CC2` (some centres unmarked) [Example 4], 95%.
Same read-out and setting: under `[O-][S+]1CCc2nc(N3CC4CC3CN4c3ccc(F)cc3)nc(NC3CCOCC3)c21` (centres unmarked) [Example 26] stands 94%; under `[O-][S+]1CCc2nc(N3C[C@H]4CC3CN4c3nc4ccccc4o3)nc(NC3CCOCC3)c21` (some centres unmarked) [Example 29, [2-(5-benzoxazol-2-yl-2,5-diazabicyclo[2,2,1]hept-2-yl)-5-oxo-6,7-dihydro-5H-5λ^4-thieno[3,2-d]pyrimidin-4-yl]-(tetrahydropyran-4-yl)-amine], 97%.
`CC(C)[C@H](CO)Nc1nc(N2CCN(c3ccccc3)C(=O)C2)nc2c1[S+]([O-])CC2` (some centres unmarked) [Example 15] showed an inhibition at 1 µM of 77%.
`[O-][S+]1CCc2nc(N3C4CC[C@@H]3CN(c3ccc(Br)cc3)C4)nc(NC3(CO)CC3)c21` (some centres unmarked) [Example 28, (1-{2-[3-(4-bromophenyl)-3,8-diazabicyclo[3.2.1]oct-8-yl]-5-oxo-6,7-dihydro-5H-5λ^4-thieno[3,2-d]pyrimidin-4-ylamino}-cyclopropyl)-methanol trifluoroacetate] came in with an inhibition at 1 µM of 97%.
In the case of `O=C1CN(c2nc3c(c(NC4(CO)CC4)n2)[S+]([O-])CC3)CCN1c1ccccc1` (centres unmarked) [Example 16], the inhibition at 1 µM worked out at 86%.
Same read-out and setting: under `[O-][S+]1CCc2nc(N3CC4CC3CN4c3ccc(Br)cc3)nc(NC3CCOCC3)c21` (centres unmarked) [Example 20] stands 95%.
The same measure, in the same setting: under `[O-][S+]1CCc2nc(N3CC4CC3CN4c3cccc(F)c3)nc(NC3CCOCC3)c21` (centres unmarked) [Example 25] stands 94%; under `O=C1CN(c2nc3c(c(Nc4cccc(F)c4)n2)[S+]([O-])CC3)CCN1c1ccccc1` (centres unmarked) [Example 19], 95%; under `[O-][S+]1CCc2nc(N3C4CCC3CN(c3ccc(Br)cc3)C4)nc(NC3CCOCC3)c21` (centres unmarked) [Example 27], 97%.
Same read-out and setting: under `C[C@H]1CN(c2ccc(Cl)cc2)CCN1c1nc2c(c(NC3(CO)CC3)n1)[S+]([O-])CC2` (some centres unmarked) [Example 5] stands 95%.
In turn, `[O-][S+]1CCc2nc(N3CC4CC3CN4c3cccc(F)c3)nc(NC3(CO)CC3)c21` (centres unmarked) [Example 23] had an inhibition at 1 µM of 93%.
With `O=C1CN(c2nc3c(c(NC4CCOCC4)n2)[S+]([O-])CC3)CCN1c1cccc(Br)c1` (centres unmarked) [Example 14], 1 µM produced 92% inhibition.
`C[C@H]1CN(c2ccc(Cl)cc2)CCN1c1nc2c(c(N[C@H]3CCC(=O)N(C)C3)n1)[S+]([O-])CC2` (some centres unmarked) [Example 3]: the inhibition at 1 µM came to 96%.
On the same count and under the same terms, under `O=C1CN(c2nc3c(c(NC4(CO)CC4)n2)[S+]([O-])CC3)CCN1c1ccc(Br)cc1` (centres unmarked) [Example 11] stands 90%; under `CC(C)[C@H](CO)Nc1nc(N2CCN(c3ccc(Cl)cc3)C[C@@H]2C)nc2c1[S+]([O-])CC2` (some centres unmarked) [Example 2], 94%.
The same measure, in the same setting: under `[O-][S+]1CCc2nc(N3CC4CC3CN4c3ccc(Cl)cc3)nc(NC3(CO)CC3)c21` (centres unmarked) [Example 8] stands 95%.

Staying with this experiment, now noted: Table C; test substance 1 μM; one hour incubation with [H3]-cAMP at 30° C.
`[O-][S+]1CCc2nc(N3CCn4c(nnc4-c4ccc(F)cc4)C3)nc(NC3CCOCC3)c21` (centres unmarked) [Example 35] displayed an inhibition at 1 µM of 94%.
On the same count and under the same terms, under `[O-][S+]1CCc2nc(N3CCn4c(Cc5ccc(Cl)c(Cl)c5)nnc4C3)nc(NC3(CO)CC3)c21` (centres unmarked) [Example 32] stands 91%; under `CC(C)[C@H](CO)Nc1nc(N2CCn3c(nnc3-c3ccc(F)cc3)C2)nc2c1[S+]([O-])CC2` (some centres unmarked) [Example 43], 88%.
Turning to `[O-][S+]1CCc2nc(N3CCn4c(Cc5ccc(Cl)c(Cl)c5)nnc4C3)nc(NC3CCOCC3)c21` (centres unmarked) [Example 36], the inhibition at 1 µM stood at 93%.
`CCOC(=O)c1cn2c(n1)CN(c1nc3c(c(Nc4cccc(F)c4)n1)[S+]([O-])CC3)CC2` (centres unmarked) [Example 38] gave an inhibition at 1 µM of 95%.
On the same count and under the same terms, under `[O-][S+]1CCc2nc(N3CCn4c(nnc4-c4ccc(F)cc4)C3)nc(Nc3cccc(F)c3)c21` (centres unmarked) [Example 39, (3-fluorophenyl)-{2-[3-(4-fluorophenyl)-5,6-dihydro-8H-[1,2,4]triazolo[4,3-a]pyrazin-7-yl]-5-oxo-6,7-dihydro-5H-5λ^4-thieno[3,2-d]pyrimidin-4-yl}-amine] stands 95%; under `CC(C)[C@H](CO)Nc1nc(N2CCn3c(Cc4ccc(Cl)c(Cl)c4)nnc3C2)nc2c1[S+]([O-])CC2` (some centres unmarked) [Example 44], 78%.
The same measure, in the same setting: under `[O-][S+]1CCc2nc(N3CCn4cnnc4C3)nc(NC3CCOCC3)c21` (centres unmarked) [Example 37, [2-(5,6-DIHYDRO-8H-[1,2,4]TRIAZOLO[4,3-A]PYRAZIN-7-YL)-5-OXO-6,7-DIHYDRO-5H-5λ^4-THIENO[3,2-D]PYRIMIDIN-4-YL]-(TETRAHYDRO-PYRAN-4-YL)-AMINE TRIFLUOROACETATE] stands 87%.
The molecule `CCOC(=O)c1cn2c(n1)CN(c1nc3c(c(N[C@@H](CO)C(C)C)n1)[S+]([O-])CC3)CC2` (some centres unmarked) [Example 42] had an inhibition at 1 µM of 94%.
Same read-out and setting: under `[O-][S+]1CCc2nc(N3CCn4cnnc4C3)nc(Nc3cccc(F)c3)c21` (centres unmarked) [Example 41, [2-(5,6-DIHYDRO-8H-[1,2,4]TRIAZOLO[4,3-A]PYRAZIN-7-YL)-5-OXO-6,7-DIHYDRO-5H-5λ^4-THIENO[3,2-D]PYRIMIDIN-4-YL]-(3-FLUOROPHENYL)-AMINE TRIFLUOROACETATE] stands 90%.
For the molecule `CCOC(=O)c1cn2c(n1)CN(c1nc3c(c(NC4CCOCC4)n1)[S+]([O-])CC3)CC2` (centres unmarked) [Example 34], at 1 µM the inhibition was 95%.
The same measure, in the same setting: under `[O-][S+]1CCc2nc(N3CCn4cnnc4C3)nc(NC3(CO)CC3)c21` (centres unmarked) [Example 33, {1-[2-(5,6-DIHYDRO-8H-[1,2,4]TRIAZOLO[4,3-A]PYRAZIN-7-YL)-5-OXO-6,7-DIHYDRO-5H-5λ^4-THIENO[3,2-D]PYRIMIDIN-4-YLAMINO]-CYCLOPROPYL}-METHANOL TRIFLUORACETATE] stands 75%; under `[O-][S+]1CCc2nc(N3CCn4c(Cc5ccc(Cl)c(Cl)c5)nnc4C3)nc(Nc3cccc(F)c3)c21` (centres unmarked) [Example 40, {2-[3-(3,4-dichlorobenzyl)-5,6-dihydro-8H-[1,2,4]triazolo[4,3-a]pyrazin-7-yl]-5-oxo-6,7-dihydro-5H-5λ^4-thieno[3,2-d]pyrimidin-4-yl}-(3-fluorophenyl)-amine], 94%.

Still in this experiment, the particulars now being: Table D; test substance 1 μM; one hour incubation with [H3]-cAMP at 30° C.
Regarding `CN1C[C@@H](Nc2nc(N3CCn4c(nnc4-c4ccc(F)cc4)C3)nc3c2[S+]([O-])CC3)CCC1=O` (some centres unmarked) [Example 47], the inhibition at 1 µM is 96%.
Same read-out and setting: under `CN(C(=O)c1cn2c(n1)CN(c1nc3c(c(NC4CCOCC4)n1)[S+]([O-])CC3)CC2)C1CCOCC1` (centres unmarked) [Example 54] stands 94%.
Still for that read-out and setting: under `CN(C(=O)c1cn2c(n1)CN(c1nc3c(c(NC4CCOCC4)n1)[S+]([O-])CC3)CC2)C1CC1` (centres unmarked) [Example 50] stands 93%; under `O=C(c1cn2c(n1)CN(c1nc3c(c(NC4CCOCC4)n1)[S+]([O-])CC3)CC2)N1CCOCC1` (centres unmarked) [Example 48, Morpholin-4-yl-{7-[5-oxo-4-(tetrahydropyran-4-ylamino)-6,7-dihydro-5H-5λ^4-thieno[3,2-d]pyrimidin-2-yl]-5,6,7,8-tetrahydroimidazo[1,2-a]pyrazin-2-yl}-methanone], 93%.
In turn, `CC(C)(NC(=O)c1cn2c(n1)CN(c1nc3c(c(NC4CCOCC4)n1)[S+]([O-])CC3)CC2)c1ccncc1` (centres unmarked) [Example 53] registered an inhibition at 1 µM of 94%.
Still for that read-out and setting: under `O=C(c1cn2c(n1)CN(c1nc3c(c(NC4CCOCC4)n1)[S+]([O-])CC3)CC2)N(C1CCOCC1)C1CC1` (centres unmarked) [Example 55] stands 93%.
Same read-out and setting: under `Cc1cn(C)nc1CN(C)C(=O)c1cn2c(n1)CN(c1nc3c(c(NC4CCOCC4)n1)[S+]([O-])CC3)CC2` (centres unmarked) [Example 56] stands 94%; under `CN1CCC(N(C)C(=O)c2cn3c(n2)CN(c2nc4c(c(NC5CCOCC5)n2)[S+]([O-])CC4)CC3)CC1` (centres unmarked) [Example 49], 93%.
